Test results: patent US20240158393A1, “PYRIDONE COMPOUNDS AND METHODS OF USE” (Exelixis, Inc., priority 2021, published 2024)

Assays:
Human Met = target: T1, Human Met (Homo sapiens, UniProt P08581); experiment: Human Met kinase assay (33P radiometric / HTRF KinEase); format: biochemical; conditions: protocols of Examples D-1 and/or D-2; read-out: c-Met IC50
T1 construct: Human MET (residues 956-1390)
Outline: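 Two formats gave IC50s by curve fitting. HTRF KinEase used MET residues 956-1390 with 1 μM biotin-peptide and 3.0 μM ATP (Km) for 40 min at room temperature, ten doses in 3% DMSO, 665/620 nm read. The 33P transfer assay used mutant Met R974-S1390 A1209G/V1290L (3.4 nM), 10 μM ATP, 250 μM peptide, pH 7.0, 40 min, nine doses from 1 μM.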

Human Axl = target: T2, Human Axl (Homo sapiens, UniProt P30530); experiment: Human AXL kinase assay (33P radiometric / HTRF KinEase); format: biochemical; conditions: protocols of Examples A-1 and/or A-2
T2 construct: Human AXL (residues 464-885)
T2 sequence (P30530 1-894 Q764R): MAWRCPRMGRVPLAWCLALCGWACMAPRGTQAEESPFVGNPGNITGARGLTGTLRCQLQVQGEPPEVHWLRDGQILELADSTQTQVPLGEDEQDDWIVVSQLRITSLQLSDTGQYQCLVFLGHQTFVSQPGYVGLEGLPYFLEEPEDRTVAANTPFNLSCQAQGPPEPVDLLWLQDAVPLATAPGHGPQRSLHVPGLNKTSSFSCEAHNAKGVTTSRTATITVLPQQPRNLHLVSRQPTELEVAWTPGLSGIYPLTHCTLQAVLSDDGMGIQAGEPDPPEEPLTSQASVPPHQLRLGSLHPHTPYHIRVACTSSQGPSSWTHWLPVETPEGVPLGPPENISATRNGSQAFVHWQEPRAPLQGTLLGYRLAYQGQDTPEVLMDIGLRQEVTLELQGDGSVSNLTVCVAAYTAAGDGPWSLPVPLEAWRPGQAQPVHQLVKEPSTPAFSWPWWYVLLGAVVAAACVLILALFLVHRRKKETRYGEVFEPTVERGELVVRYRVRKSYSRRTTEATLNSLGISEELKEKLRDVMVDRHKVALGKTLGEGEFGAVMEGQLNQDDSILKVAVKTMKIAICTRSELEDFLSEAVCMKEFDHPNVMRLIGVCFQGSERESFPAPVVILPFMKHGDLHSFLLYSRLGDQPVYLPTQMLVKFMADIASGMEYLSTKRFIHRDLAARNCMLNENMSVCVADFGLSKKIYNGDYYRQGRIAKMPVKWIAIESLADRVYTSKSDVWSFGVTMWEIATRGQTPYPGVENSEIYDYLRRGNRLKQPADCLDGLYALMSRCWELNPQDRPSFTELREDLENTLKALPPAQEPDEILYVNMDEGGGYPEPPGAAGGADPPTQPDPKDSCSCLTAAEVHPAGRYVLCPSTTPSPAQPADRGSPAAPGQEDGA

T1 sequence (P08581 974-1390 limits assumed): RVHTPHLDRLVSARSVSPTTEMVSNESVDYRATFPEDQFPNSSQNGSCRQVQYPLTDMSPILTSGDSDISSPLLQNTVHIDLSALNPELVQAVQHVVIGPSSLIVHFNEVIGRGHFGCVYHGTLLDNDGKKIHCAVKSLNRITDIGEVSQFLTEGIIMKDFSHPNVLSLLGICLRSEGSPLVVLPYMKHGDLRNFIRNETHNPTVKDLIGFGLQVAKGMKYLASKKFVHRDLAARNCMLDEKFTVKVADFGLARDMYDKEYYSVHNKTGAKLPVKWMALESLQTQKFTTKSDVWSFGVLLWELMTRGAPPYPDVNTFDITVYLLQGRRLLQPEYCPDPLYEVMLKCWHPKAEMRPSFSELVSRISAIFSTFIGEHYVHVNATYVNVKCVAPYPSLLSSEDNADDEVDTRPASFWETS

Row | IC50 (Human Met) | IC50 (Human Axl) | Structure (SMILES)
1 | > 300 nM | ≤ 100 nM | CNC(=O)c1c(C)nc(C)c(C(=O)Nc2ccc(Oc3ccnc4cc(OC)c(OC)nc34)c(F)c2)c1O [Compound 97, 3-N-[4-[(6,7-Dimethoxy-1,5-naphthyridin-4-yl)oxy]-3-fluorophenyl]-4-hydroxy-5-N,2,6-trimethylpyridine-3,5-dicarboxamide]
2 | > 300 nM | ≤ 100 nM | COc1cc2nccc(Oc3ccc(NC(=O)c4c(C)nc(C)c(C(=O)NC5CC5)c4O)cc3F)c2nc1OC [Compound 98, 5-N-Cyclopropyl-3-N-[4-[(6,7-dimethoxy-1,5-naphthyridin-4-yl)oxy]-3-fluorophenyl]-4-hydroxy-2,6-dimethylpyridine-3,5-dicarboxamide]
3 | ≤ 100 nM | ≤ 100 nM | COc1cc2nccc(Oc3ccc(NC(=O)c4c5n(c(C)c(C6=CCCC6)c4=O)CCOC5)cc3)c2nc1OC [Compound 99, 7-(Cyclopenten-1-yl)-N-[4-[(6,7-dimethoxy-1,5-naphthyridin-4-yl)oxy]phenyl]-6-methyl-8-oxo-3,4-dihydro-1H-pyrido[2,1-c][1,4]oxazine-9-carboxamide]
4 | ≤ 100 nM | ≤ 100 nM | COc1cc2nccc(Oc3ccc(NC(=O)c4c5n(c(C)c(C6=CCCCC6)c4=O)CCOC5)cc3)c2nc1OC [Compound 100, 7-(Cyclohexen-1-yl)-N-[4-[(6,7-dimethoxy-1,5-naphthyridin-4-yl)oxy]phenyl]-6-methyl-8-oxo-3,4-dihydro-1H-pyrido[2,1-c][1,4]oxazine-9-carboxamide]
5 | ≤ 100 nM | ≤ 100 nM | COc1cc2nccc(Oc3ccc(NC(=O)c4c5n(cc(C6=CCCCC6)c4=O)CCOC5)cc3)c2nc1OC [Compound G1-5, 7-(Cyclohexen-1-yl)-N-[4-[(6,7-dimethoxy-1,5-naphthyridin-4-yl)oxy]phenyl]-8-oxo-3,4-dihydro-1H-pyrido[2,1-c][1,4]oxazine-9-carboxamide]
6 | > 300 nM | ≤ 100 nM | COc1cc2nccc(Oc3ccc(NC(=O)c4c5n(cc(C6=CCOCC6)c4=O)CCOC5)cc3)c2nc1OC [Compound G1-8, 7-(3,6-Dihydro-2H-pyran-4-yl)-N-[4-[(6,7-dimethoxy-1,5-naphthyridin-4-yl)oxy]phenyl]-8-oxo-3,4-dihydro-1H-pyrido[2,1-c][1,4]oxazine-9-carboxamide]
